Experimental data taken from patent publication US20150218534A1, “MODIFIED DNA POLYMERASE” (TOYOBO CO., LTD., priority 2012, published 2015).

Tests used:
[1] = test system: 1.3 kbp, 2.8 kbp, and 3.6 kbp of human β-globin; experiment: Amplification of long-chain DNA in PCR using dUTP; assay type: biochemical; parameters: key to Results of PCR in the presence of dUTP 1.3 kbp / Results of PCR in the presence of dUTP 2.8 kbp / Results of PCR in the presence of dUTP 3.6 kbp: A: Amplified; B: Amplified (faint band); C: Not amplified; details: dTTP replaced by dUTP, 35 cycles
Procedure, shortened: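 Enzymes (1 U, premixed with KOD antibody) amplified 1.3, 2.8 and 3.6 kbp β-globin from 10 ng human genomic DNA with 2 mM dNTPs having dUTP in place of dTTP, 1.5 mM MgSO4, 35 cycles (98° C. 10 s, 65° C. 30 s, 68° C. ~1 min/kbp). Taq control: 2.5 U, 94° C. denaturation. Yield judged by ethidium-stained agarose gel.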

[2] = test system: 482 bp of human β-globin; experiment: PCR amplification of 482 bp of human β-globin with dUTP in place of dTTP; assay type: biochemical; parameters: key to Results of PCR in the presence of dUTP 481 bp: A: Amplified; B: Amplified (faint band); C: Not amplified; details: for Results of PCR in the presence of dUTP 481 bp: dTTP replaced by dUTP, 35 cycles
Procedure, shortened: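 482 bp human β-globin amplified from 10 ng human genomic DNA with 1 U enzyme premixed with KOD antibody, using 0.2 mM dNTPs with either dTTP or dUTP, 1.5 mM MgSO4, 15 pmol primers. Cycling: 94 °C 2 min, then 35 cycles of 98 °C 10 s, 68 °C 1 min; products analysed by MultiNA DNA-1000 microchip electrophoresis.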

KOD H147E/P115Δ: KOD H147E (exo(+)) mutant lacking P115
Results of PCR in the presence of dUTP 1.3 kbp [1]: C | Results of PCR in the presence of dUTP 2.8 kbp [1]: C | Results of PCR in the presence of dUTP 3.6 kbp [1]: C | Results of PCR in the presence of dUTP 481 bp [2]: C

KOD N210D/Y7A/P115Δ: KOD N210D (exo(−)) mutant with Y7A and lacking P115
Results of PCR in the presence of dUTP 1.3 kbp [1]: C | Results of PCR in the presence of dUTP 2.8 kbp [1]: C | Results of PCR in the presence of dUTP 3.6 kbp [1]: C | Results of PCR in the presence of dUTP 481 bp [2]: C

KOD I142R/V93K: KOD I142R (exo(−)) mutant with V93K
Results of PCR in the presence of dUTP 1.3 kbp [1]: A | Results of PCR in the presence of dUTP 2.8 kbp [1]: B | Results of PCR in the presence of dUTP 3.6 kbp [1]: B | Results of PCR in the presence of dUTP 481 bp [2]: A

KOD N210D/V93R: KOD N210D (exo(−)) mutant with V93R
Results of PCR in the presence of dUTP 1.3 kbp [1]: A | Results of PCR in the presence of dUTP 2.8 kbp [1]: B | Results of PCR in the presence of dUTP 3.6 kbp [1]: B | Results of PCR in the presence of dUTP 481 bp [2]: A

KOD N210D/Y7A: KOD N210D (exo(−)) mutant with Y7A
Results of PCR in the presence of dUTP 1.3 kbp [1]: C | Results of PCR in the presence of dUTP 2.8 kbp [1]: C | Results of PCR in the presence of dUTP 3.6 kbp [1]: C | Results of PCR in the presence of dUTP 481 bp [2]: C

KOD H147E/Y7A: KOD H147E (exo(+)) mutant with Y7A
Results of PCR in the presence of dUTP 1.3 kbp [1]: C | Results of PCR in the presence of dUTP 2.8 kbp [1]: C | Results of PCR in the presence of dUTP 3.6 kbp [1]: C | Results of PCR in the presence of dUTP 481 bp [2]: C

KOD I142R/P36H: KOD I142R (exo(−)) mutant with P36H
Results of PCR in the presence of dUTP 1.3 kbp [1]: A | Results of PCR in the presence of dUTP 2.8 kbp [1]: A | Results of PCR in the presence of dUTP 3.6 kbp [1]: A | Results of PCR in the presence of dUTP 481 bp [2]: A

KOD D141A/E143A/Y7A/P36H: KOD D141A/E143A (exo(−)) mutant with Y7A and P36H
Results of PCR in the presence of dUTP 1.3 kbp [1]: A | Results of PCR in the presence of dUTP 2.8 kbp [1]: A | Results of PCR in the presence of dUTP 3.6 kbp [1]: A | Results of PCR in the presence of dUTP 481 bp [2]: A

KOD N210D/P36R: KOD N210D (exo(−)) mutant with P36R
Results of PCR in the presence of dUTP 1.3 kbp [1]: A | Results of PCR in the presence of dUTP 2.8 kbp [1]: A | Results of PCR in the presence of dUTP 3.6 kbp [1]: A | Results of PCR in the presence of dUTP 481 bp [2]: A

KOD H147E/V93Q: KOD H147E (exo(+)) mutant with V93Q
Results of PCR in the presence of dUTP 1.3 kbp [1]: C | Results of PCR in the presence of dUTP 2.8 kbp [1]: C | Results of PCR in the presence of dUTP 3.6 kbp [1]: C | Results of PCR in the presence of dUTP 481 bp [2]: A

KOD N210D/Y7A/P36R: KOD N210D (exo(−)) mutant with Y7A and P36R
Results of PCR in the presence of dUTP 1.3 kbp [1]: A | Results of PCR in the presence of dUTP 2.8 kbp [1]: A | Results of PCR in the presence of dUTP 3.6 kbp [1]: A | Results of PCR in the presence of dUTP 481 bp [2]: A

KOD H147E/P36H/V93K: KOD H147E (exo(+)) mutant with P36H and V93K
Results of PCR in the presence of dUTP 1.3 kbp [1]: A | Results of PCR in the presence of dUTP 2.8 kbp [1]: A | Results of PCR in the presence of dUTP 3.6 kbp [1]: C | Results of PCR in the presence of dUTP 481 bp [2]: A

KOD I142R/Y7A: KOD I142R (exo(−)) mutant with Y7A
Results of PCR in the presence of dUTP 1.3 kbp [1]: C | Results of PCR in the presence of dUTP 2.8 kbp [1]: C | Results of PCR in the presence of dUTP 3.6 kbp [1]: C | Results of PCR in the presence of dUTP 481 bp [2]: C

B1: KOD Y7A: modified DNA polymerase derived from Thermococcus kodakaraensis KOD1 with Y7A (protein, listed as Thermococcus kodakaraensis)
chain: MILDTDAITEDGKPVIRIFKKENGEFKIEYDRTFEPYFYALLKDDSAIEEVKKITAERHGTVVTVKRVEKVQKKFLGRPVEVWKLYFTHPQDVPAIRDKIREHPAVIDIYEYDIPFAKRYLIDKGLVPMEGDEELKMLAFDIETLYHEGEEFAEGPILMISYADEEGARVITWKNVDLPYVDVVSTEREMIKRFLRVVKEKDPDVLITYNGDNFDFAYLKKRCEKLGINFALGRDGSEPKIQRMGDRFAVEVKGRIHFDLYPVIRRTINLPTYTLEAVYEAVFGQPKEKVYAEEITTAWETGENLERVARYSMEDAKVTYELGKEFLPMEAQLSRLIGQSLWDVSRSSTGNLVEWFLLRKAYERNELAPNKPDEKELARRRQSYEGGYVKEPERGLWENIVYLDFRSLYPSIIITHNVSPDTLNREGCKEYDVAPQVGHRFCKDFPGFIPSLLGDLLEERQKIKKKMKATIDPIERKLLDYRQRAIKILANSYYGYYGYARARWYCKECAESVTAWGREYITMTIKEIEEKYGFKVIYSDTDGFFATIPGADAETVKKKAMEFLKYINAKLPGALELEYEGFYKRGFFVTKKKYAVIDEEGKITTRGLEIVRRDWSEIAKETQARVLEALLKDGDVEKAVRIVKEVTEKLSKYEVPPEKLVIHEQITRDLKDYKATGPHVAVAKRLAARGVKIRPGTVISYIVLKGSGRIGDRAIPFDEFDPTKHKYDAEYYIENQVLPAVERILRAFGYRKEDLRYQKTRQVGLSAWLKPKGT
Results of PCR in the presence of dUTP 1.3 kbp [1]: C | Results of PCR in the presence of dUTP 2.8 kbp [1]: C | Results of PCR in the presence of dUTP 3.6 kbp [1]: C | PCR amplification of 482 bp with dUTP ([2]; 100% dUTP instead of dTTP (FIGS. 5 to 8)): not PCR-amplified | Results of PCR in the presence of dUTP 481 bp [2]: C

B2: KOD P36H: modified KOD DNA polymerase with P36H (protein, listed as Thermococcus kodakaraensis)
chain: MILDTDYITEDGKPVIRIFKKENGEFKIEYDRTFEHYFYALLKDDSAIEEVKKITAERHGTVVTVKRVEKVQKKFLGRPVEVWKLYFTHPQDVPAIRDKIREHPAVIDIYEYDIPFAKRYLIDKGLVPMEGDEELKMLAFDIETLYHEGEEFAEGPILMISYADEEGARVITWKNVDLPYVDVVSTEREMIKRFLRVVKEKDPDVLITYNGDNFDFAYLKKRCEKLGINFALGRDGSEPKIQRMGDRFAVEVKGRIHFDLYPVIRRTINLPTYTLEAVYEAVFGQPKEKVYAEEITTAWETGENLERVARYSMEDAKVTYELGKEFLPMEAQLSRLIGQSLWDVSRSSTGNLVEWFLLRKAYERNELAPNKPDEKELARRRQSYEGGYVKEPERGLWENIVYLDFRSLYPSIIITHNVSPDTLNREGCKEYDVAPQVGHRFCKDFPGFIPSLLGDLLEERQKIKKKMKATIDPIERKLLDYRQRAIKILANSYYGYYGYARARWYCKECAESVTAWGREYITMTIKEIEEKYGFKVIYSDTDGFFATIPGADAETVKKKAMEFLKYINAKLPGALELEYEGFYKRGFFVTKKKYAVIDEEGKITTRGLEIVRRDWSEIAKETQARVLEALLKDGDVEKAVRIVKEVTEKLSKYEVPPEKLVIHEQITRDLKDYKATGPHVAVAKRLAARGVKIRPGTVISYIVLKGSGRIGDRAIPFDEFDPTKHKYDAEYYIENQVLPAVERILRAFGYRKEDLRYQKTRQVGLSAWLKPKGT
Results of PCR in the presence of dUTP 1.3 kbp [1]: B | Results of PCR in the presence of dUTP 2.8 kbp [1]: B | Results of PCR in the presence of dUTP 3.6 kbp [1]: C | Results of PCR in the presence of dUTP 481 bp [2]: A
